Data reported in patent publication US5616566A, “Method of inhibiting HIV replication with 2',3'-dideoxyadenosine” (The United States of America as represented by the …, priority 1993, dated 1997).
Marks after values point to notes of the source that are not given here.

Legend:
[1] = system: cellular DNA polymerase gamma; conditions: cited from earlier work
[2] = system: mammalian DNA polymerase alpha; conditions: cited from earlier work
[3] = system: viral reverse transcriptase; conditions: cited from earlier work
[4] = system: cellular DNA polymerase beta; conditions: cited from earlier work
HSV-1 [5] = assay: Antiviral activity against HSV-1 (second line); type: cell-based; conditions: Human alphaherpesvirus 1; primary rabbit kidney cell cultures; second HSV-1 line; read-out: Minimal Inhibitory Concentration (required to reduce virus-induced cytopathogenicity by 50%)
HTLV-III = assay: Antiviral activity against HTLV-III; type: cell-based, human immunodeficiency virus (HIV); conditions: for IC50: Human immunodeficiency virus 1, ATH-8, T4+ human T cell (ATH8) cultures, read-out: Minimal Inhibitory Concentration (required to reduce virus-induced cytopathogenicity by 50%); for activity against HIV: Table 3 note
From the text: (§1) The antiviral activity of the dideoxynucleosides of the present invention against a variety of viruses were compared. The results, shown in Table 3, indicate that the compositions of the present invention are selectively effective against HIV virus.
(§2) ^1 Required to reduce virusinduced cytopathogenicity by 50%.
^5 Antiviral activity measured in T4+ human T cell (ATH8) cultures.

Coxsackie Virus B4 = assay: Antiviral activity against Coxsackie Virus B4; type: cell-based; conditions: Enterovirus B, Hela cell cultures, read-out: Minimal Inhibitory Concentration (required to reduce virus-induced cytopathogenicity by 50%)
HSV-1 [6] = assay: Antiviral activity against HSV-1 (first line); type: cell-based; conditions: Human alphaherpesvirus 1; primary rabbit kidney cell cultures; first HSV-1 line; read-out: Minimal Inhibitory Concentration (required to reduce virus-induced cytopathogenicity by 50%)
Polio Virus-1 = assay: organism not typed; type: cell-based; conditions: HeLa, read-out: Minimal Inhibitory Concentration (required to reduce virus-induced cytopathogenicity by 50%)
Parainfluenza Virus-3 = assay: Antiviral activity against Parainfluenza Virus-3; type: cell-based; conditions: Vero; read-out: Minimal Inhibitory Concentration (required to reduce virus-induced cytopathogenicity by 50%)
Reovirus-1 = assay: Antiviral activity against Reovirus-1; type: cell-based; conditions: Vero cell cultures; read-out: Minimal Inhibitory Concentration (required to reduce virus-induced cytopathogenicity by 50%)
[7] = dog, in vivo
[8] = system: PBM (peripheral blood mononuclear cells) stimulated with pokeweed mitogen; assay: Immune reactivity of normal lymphocytes: PBM + PWM; type: cell-based; conditions: 72 hours
[9] = system: normal helper/inducer TM3 cells; assay: Immune reactivity of normal lymphocytes: tetanus toxoid-driven activation of clone TM3; type: cell-based; conditions: 72 hours
Protocol: There was tested the effects of the various 2',3'-dideoxynucleosides on the antigen-specific and lectin-induced reactivity of normal lymphocytes in vitro (Table 2). There was used a normal clone (TM3)of tetanus-toxoid specific helper/inducer T-cells to monitor the effects of the compounds on antigen-driven activation and normal circulating lymphocytes to monitor effects on pokeweed mitogen and phytohaemagglutinin-driven activation. Concentrations of these compounds, including those that were 10- to 20-fold higher than those necessary to block the in vitro infectivity and cytopathic effect of HIV (HTLV-III/LAV) left the in vitro immune reactivity of normal lymphocytes basically intact.
^2 5 × 10^4 normal helper/inducer TM3 cells were stimulated
with tetanus toxoid (0.6 limiting flocculation units/ml) plus 10^5
irradiated (4,000 rad) autologous peripheral blood mononuclear cells (PBM
as a source of accessory cells and cultured for 72 hours in the presence
or absence of the 2',3dideoxynucleoside. After exposure to 0.5 uCi^3
Hthymidine or 1 uCi ^3 Huidine for the final 5 hours, cells were
harvested onto glass fibers and the incorporated radioactivity was
counted. Data are expressed as the arithmetic mean counts per minute
(×10^3) ± 1 standard deviation triplicate determinations.

[10] = system: Vesicular Stomatitis Virus; assay: microbe, parasite or virus in culture; type: cell-based; conditions: HeLa, read-out: Minimal Inhibitory Concentration (required to reduce virus-induced cytopathogenicity by 50%)
[11] = system: PBM (peripheral blood mononuclear cells) stimulated with phytohaemagglutinin; assay: Immune reactivity of normal lymphocytes: PBM + PHA; type: cell-based; conditions: 72 hours
[12] = system: HIV (HTLV-III/LAV), ATH8 cells; assay: Inhibition of cytopathic effect of HIV (HTLV-III/LAV) against ATH8 cells; type: cell-based, human immunodeficiency virus (HIV)
Vaccinia = assay: microbe, parasite or virus in culture; type: cell-based; conditions: Orthopoxvirus vaccinia, in Oryctolagus cuniculus, read-out: Minimal Inhibitory Concentration (required to reduce virus-induced cytopathogenicity by 50%)
Semliki Forest Virus = assay: Antiviral activity against Semliki Forest Virus; type: cell-based; conditions: Vero cell cultures, read-out: Minimal Inhibitory Concentration (required to reduce virus-induced cytopathogenicity by 50%)
From the text: as §1, §2
(§3) ^4 Antiviral activity measured in Vero cell cultures.

DNA and RNA viruses = assay: Antiviral activity against a variety of viruses (Table 3 overall); type: cell-based; conditions: Table 3 note
From the text: as §1, §2

Sindbis Virus = assay: Antiviral activity against Sindbis Virus; type: cell-based; conditions: Vero cell cultures, read-out: Minimal Inhibitory Concentration (required to reduce virus-induced cytopathogenicity by 50%)
From the text: as §1, §2, §3

[13] = system: HIV (HTLV-III/LAV) p24 gag protein, H9 cells; assay: Inhibition of infectivity and replication of HIV (p24 gag protein expression) in H9 cells; type: cell-based, human immunodeficiency virus (HIV)
[14] = 10 uM, 3H-thymidine incorporation, mean ± 1 SD, triplicate
[15] = 100 uM, 3H-thymidine incorporation, mean ± 1 SD, triplicate
[16] = 1 uM, 3H-uridine incorporation, mean ± 1 SD, triplicate
[17] = 10 uM, 3H-uridine incorporation, mean ± 1 SD, triplicate
[18] = 200 uM, 3H-uridine incorporation
[19] = 2,000 uM, 3H-uridine incorporation, mean ± 1 SD, triplicate

Row | SMILES | IC50 (HSV-1 [5]) | IC50 (HTLV-III) | IC50 (Coxsackie Virus B4) | IC50 (HSV-1 [6]) | IC50 (Polio Virus-1) | IC50 (Parainfluenza Virus-3) | IC50 (Reovirus-1) | activation of PBM + PWM, mean counts per minute [8, 14] | activation of PBM + PWM, mean counts per minute [8, 15] | activation of clone TM3, mean counts per minute [9, 14] | activation of clone TM3, mean counts per minute [9, 15] | IC50 [10] | activation of PBM + PHA, mean counts per minute [11, 14] | activation of PBM + PHA, mean counts per minute [11, 15] | IC50 (Vaccinia) | IC50 (Semliki Forest Virus) | IC50 (Sindbis Virus) | further results
1 | Nc1ncnc2c1ncn2[C@H]1CC[C@@H](COP(=O)(O)OP(=O)(O)OP(=O)(O)O)O1 | – | – | – | – | – | – | – | – | – | – | – | – | – | – | – | – | – | inhibition of cellular DNA polymerase gamma [1]: can inhibit; inhibition of mammalian DNA polymerase alpha [2]: but not mammalian DNA polymerase alpha; inhibition of viral reverse transcriptase [3]: can inhibit; inhibition of cellular DNA polymerase beta [4]: can inhibit
2 | Nc1nc2c(ncn2[C@H]2CC[C@@H](COP(=O)(O)OP(=O)(O)OP(=O)(O)O)O2)c(=O)[nH]1 | – | – | – | – | – | – | – | – | – | – | – | – | – | – | – | – | – | inhibition of cellular DNA polymerase gamma [1]: can inhibit; inhibition of mammalian DNA polymerase alpha [2]: but not mammalian DNA polymerase alpha; inhibition of viral reverse transcriptase [3]: can inhibit; inhibition of cellular DNA polymerase beta [4]: can inhibit
3 | Nc1ncnc2c1ncn2[C@H]1CC[C@@H](CO)O1 [2',3'-dideoxyadenosine] | > 2000 µM | 5 µM | > 2000 µM | > 2000 µM | > 2000 µM | > 2000 µM | > 2000 µM | 63 ± 5 counts per minute (×10^3) | 57 ± 3 counts per minute (×10^3) | 86 ± 8 counts per minute (×10^3) | 67 ± 2 counts per minute (×10^3) | > 2000 µM | 289 ± 18 counts per minute (×10^3) | 314 ± 37 counts per minute (×10^3) | > 2000 µM | > 2000 µM | > 2000 µM | activity against HIV (HTLV-III): active against HIV; oral bioavailability ([7]; pH 7): 41.6%; conversion of orally administered ddA to ddI ([7]; po): converted almost entirely to 2',3'-dideoxyinosine (ddI); anti-retroviral activity against HIV [12]: have anti-retroviral activity against HIV; activity against the broad spectrum of DNA and RNA viruses (DNA and RNA viruses): not active
4 | Nc1ccn([C@H]2CC[C@@H](CO)O2)c(=O)n1 [2',3'-dideoxycytidine] | > 2000 µM | 0.3 µM | > 2000 µM | > 2000 µM | > 2000 µM | > 2000 µM | > 2000 µM | – | – | – | – | > 2000 µM | – | – | > 2000 µM | > 2000 µM | > 2000 µM | activity against HIV (HTLV-III): active against HIV; activation of PBM + PWM, mean counts per minute [8, 16]: 23 ± 3 counts per minute (×10^3); activation of PBM + PWM, mean counts per minute [8, 17]: 15 ± 3 counts per minute (×10^3); activation of clone TM3, mean counts per minute [9, 16]: 13 ± 1 counts per minute (×10^3); activation of clone TM3, mean counts per minute [9, 17]: 8 ± 1 counts per minute (×10^3); activation of PBM + PHA, mean counts per minute [11, 16]: 101 ± 1 counts per minute (×10^3); activation of PBM + PHA, mean counts per minute [11, 17]: 86 ± 3 counts per minute (×10^3); activity against the broad spectrum of DNA and RNA viruses (DNA and RNA viruses): not active
5 | Nc1nc2c(ncn2[C@H]2CC[C@@H](CO)O2)c(=O)[nH]1 [2',3'-dideoxyguanosine] | – | – | – | – | – | – | – | 73 ± 8 counts per minute (×10^3) | 62 ± 5 counts per minute (×10^3) | 66 ± 5 counts per minute (×10^3) | 77 ± 1 counts per minute (×10^3) | – | 350 ± 4 counts per minute (×10^3) | 469 ± 9 counts per minute (×10^3) | – | – | – | –
6 | OC[C@@H]1CC[C@H](n2cnc3c(O)ncnc32)O1 [2',3'-dideoxyinosine] | – | – | – | – | – | – | – | 61 ± 1 counts per minute (×10^3) | 62 ± 5 counts per minute (×10^3) | 62 ± 4 counts per minute (×10^3) | 81 ± 4 counts per minute (×10^3) | – | 298 ± 20 counts per minute (×10^3) | 355 ± 37 counts per minute (×10^3) | – | – | – | anti-retroviral activity against HIV [12]: have anti-retroviral activity against HIV
7 | Cc1cn([C@H]2CC[C@@H](CO)O2)c(=O)[nH]c1=O [2',3'-dideoxythymidine] | > 2000 µM | 200 µM | > 2000 µM | > 2000 µM | > 2000 µM | > 2000 µM | > 2000 µM | – | – | – | – | > 2000 µM | – | – | > 2000 µM | > 2000 µM | > 2000 µM | activation of PBM + PWM, mean counts per minute [8, 18]: 31 counts per minute (×10^3); activation of PBM + PWM, mean counts per minute [8, 19]: 31 counts per minute (×10^3); activation of clone TM3, mean counts per minute [9, 18]: 9 counts per minute (×10^3); activation of clone TM3, mean counts per minute [9, 19]: 9 counts per minute (×10^3); concentration required to mediate an anti-viral effect (p24 gag expression) [13]: relatively higher concentrations; resumption of viral replication ([13]; day 10 of culture): allowed a resumption of viral replication by day 10 of culture; activation of PBM + PHA, mean counts per minute [11, 18]: 86 counts per minute (×10^3); activation of PBM + PHA, mean counts per minute [11, 19]: 77 counts per minute (×10^3); concentration required to exert a protective effect ([12]; ATH8 cells): relatively high concentrations; capacity to nullify the cytopathic effect of the virus ([12]; day 10 of culture, ATH8 cells): lost on day 10 of the culture
8 | O=c1ccn([C@H]2CC[C@@H](CO)O2)c(=O)[nH]1 [Dideoxyuridine] | > 2000 µM | > 100 µM | > 2000 µM | > 2000 µM | > 2000 µM | > 2000 µM | > 2000 µM | – | – | – | – | > 2000 µM | – | – | > 2000 µM | > 2000 µM | > 2000 µM | –
